Results: patent US20020094522A1, “Means and methods for monitoring non-nucleoside reverse transcriptase inhibitor antiretroviral therapy and guiding therapeutic decisions in the treatment of HIV/AIDS” (priority 2000, published 2002)

Key:
[1] = test system: RTV-268 (patient sample 97-268; P236L); assay: Phenotypic susceptibility assay, RTV-268; type: cell-based, HIV-1; conditions: RTV-268 / patient 268
Source text: The resistance test vectors containing a functional luciferase gene cassette were constructed and host cells were transfected with the resistance test vector DNA. The resistant test vectors contained patient-derived reverse transcriptase and protease sequences that were either susceptible or resistant to the antiretroviral agents, such as nucleoside reverse transcriptase inhibitors, non-nucleoside reverse transcriptase inhibitors and protease inhibitors. The resistance test vector viral particles produced by transfecting the resistance test vector DNA into host cells, either in the presence or absence of protease inhibitors, were used to infect target host cells grown either in the absence of NRTI or NNRTI or in the presence of increasing concentrations of the drug. The amount of luciferase activity produced in infected target host cells in the presence of drug was compared to the amount of luciferase produced in infected target host cells in the absence of drug. Drug resistance was measured as the amount of drug required to inhibit by 50% the luciferase activity detected in the absence of drug (inhibitory concentration 50%, IC50). The IC50 values were determined by plotting percent drug inhibition vs. log10 drug concentration.
Host cells were seeded in 10-cm-diameter dishes and were transfected several days after plating with resistance test vector plasmid DNA and the envelope expression vector. Transfections were performed using a calcium-phosphate precipitation procedure. The cell culture media containing the DNA precipitate was replaced with fresh medium, from one to 24 hours, after transfection. Cell culture media containing resistance test vector viral particles was harvested one to four days after transfection and was passed through a […] filter before being stored at −80° C. HIV capsid protein (p24) levels in the harvested cell culture media were determined by an EIA method as described by the manufacturer (SIAC; Frederick, Md.). Before infection, target cells (293 and 293/T) were plated in cell culture media. Control infections were performed using cell culture media from mock transfections (no DNA) or transfections containing the resistance test vector plasmid DNA without the envelope expression plasmid. One to three or more days after infection the media was removed and cell lysis buffer (Promega) was added to each well. […] The inhibitory effect of the drug was determined using the following equation: […]
where RLUluc [drug] is the relative light unit of luciferase activity in infected cells in the presence of drug and RLUluc is the Relative Light Unit of luciferase activity in infected cells in the absence of drug. IC50 values were obtained from the sigmoidal curves that were generated from the data by plotting the percent inhibition of luciferase activity vs. the log10 drug concentration.
A resistance test vector was constructed as described in Example 1 from a patient sample designated 97-268. […] Isolation of viral RNA and RT/PCR was used to generate a patient derived segment that comprised viral sequences coding for all of PR and amino acids 1-313 of RT. The patient derived segment was inserted into a indicator gene viral vector to generate a resistance test vector designated RTV-268. RTV-268 was then tested using the phenotypic susceptibility assay to determine accurately and quantitatively the level of susceptibility to a panel of anti-retroviral drugs. […] An IC50 was determined for each drug tested. Susceptibility of the patient virus to each drug was examined and compared to the susceptibility of a reference virus. […] The sample was examined further for genotypic changes associated with the pattern of susceptibility.

[2] = test system: T66I integrase site-directed mutant resistance test vector; assay: Phenotypic susceptibility assay, T66I integrase mutant vector; type: cell-based, HIV; conditions: T66I integrase mutant
Procedure: Transfections were performed using a calcium-phosphate precipitation procedure. […] Cell lysates were assayed for luciferase activity (FIG. 3).
The drug inhibition curves are shown in (FIG. 3).
A resistance test vector containing the threonine to isoleucine mutation at position 66 of the integrase protein (T66I) was constructed and tested using the phenotypic assay described earlier.

| Structure (SMILES) | susceptibility/resistance compared to reference virus [1] | reduction in susceptibility compared to wild type control RTV [2] [fold] |
| --- | --- | --- |
| Nc1ccn([C@@H]2CS[C@H](CO)O2)c(=O)n1 [3TC] | significant resistance |  |
| Cc1cn([C@H]2C[C@H](N=[N+]=[N-])[C@@H](CO)O2)c(=O)[nH]c1=O [AZT] | significant resistance |  |
| O=C(O)C(=O)CC(=O)c1cccn1Cc1ccc(F)cc1 [L-731,988] |  | 4.7 |
| Cc1cn([C@H]2C=C[C@@H](CO)O2)c(=O)[nH]c1=O [d4T] | slight shifts in susceptibility |  |
| Nc1ccn([C@H]2CC[C@@H](CO)O2)c(=O)n1 [ddC] | slight shifts in susceptibility |  |
| O=c1[nH]cnc2c1ncn2[C@H]1CC[C@@H](CO)O1 [ddI] | slight shifts in susceptibility |  |
